Measurements: patent publication US11974997B2, “RORgamma modulators and uses thereof” (Genfit, priority 2017, dated 2024)

How the values were obtained:
human RORγt = molecular target: T1, human RORγt (Homo sapiens, UniProt P51449); test: RORE Luciferase/RORγt transactivation assay; type: cell-based; conditions: COS-7 cells, human IL-17 promoter reporter + RORγt plasmid, 20 h; read-out: IC50, inhibition of RORγt activity (luciferase)
T1 construct: the full-length cDNA of human RORγt; expressed in transfected cells; host or cells: COS-7 (monkey kidney)
T1 sequence (P51449 1-497 isoform P51449-2): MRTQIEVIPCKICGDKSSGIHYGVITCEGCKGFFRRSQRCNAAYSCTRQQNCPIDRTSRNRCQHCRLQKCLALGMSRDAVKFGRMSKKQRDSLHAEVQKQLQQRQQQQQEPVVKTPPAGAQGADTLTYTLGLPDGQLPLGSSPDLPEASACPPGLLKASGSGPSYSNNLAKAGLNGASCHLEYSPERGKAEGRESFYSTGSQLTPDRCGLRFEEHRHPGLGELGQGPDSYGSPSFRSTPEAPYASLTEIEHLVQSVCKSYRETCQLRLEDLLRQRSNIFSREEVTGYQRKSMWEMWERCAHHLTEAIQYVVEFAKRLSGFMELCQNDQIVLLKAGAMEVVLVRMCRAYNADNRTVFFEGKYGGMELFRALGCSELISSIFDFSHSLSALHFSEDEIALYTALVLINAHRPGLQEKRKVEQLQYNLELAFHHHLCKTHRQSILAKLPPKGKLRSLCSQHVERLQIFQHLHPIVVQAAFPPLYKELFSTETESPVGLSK
Procedure: It is well known that RORγ binds to a conserved non-coding sequence (CNS) enhancer element in the IL-17 promoter.
Culture medium was changed every 2 days.
The 4.3 Kb human IL-17 promoter containing the RORγ-specific CNS enhancer element was PCR amplified from human genomic DNA and cloned into a pGL3-TKLuc2Cp reporter plasmid.
The luciferase reporter plasmid and the RORγt overexpression plasmid were transfected into COS-7 cell line using 4 μLJetPEITM/μg of DNA. Briefly, 150 ng of DNA (ration ½ between RORE-Tk Luc2Cp and cDNA RORγt or the empty vector for the negative control) was served to transfect adherent COS-7 cells in a […] culture flask, in complete medium (see cos-7 cell line culture).
Cells were then detached (using trypsin) and washed by centrifugation at 300 g for 10 minutes. Cell pellet was resuspended in serum free/phenol red free DMEM and seeded in 384 well plates at a density of 10000 cells/well and then incubated for 4h at 37° C.
Compounds were dissolved in 100% DMSO to obtain 10 mM stock solutions. For each compound, test concentrations were diluted in serum free/phenol red free DMEM using the Genesis Freedom 200™ (TECAN) and added to the cells to obtain a 0.3% DMSO final concentration (in a final volume of 40 μL per well).
The luciferase activity was then measured with 40 μL/well steady-Glo Luciferase assay system (Promega, Madison, WI) and after incubation at room temperature for 30 minutes. The luminescence was estimated using the Ultra384 reader (TECAN). Data were collected and analyzed using GraphPad Prism software (GraphPad Software V5.02, San Diego California USA). IC50 in μM and Emax in % were reported for each compound.

[1] = molecular target: T2, RORγt ligand-binding domain (RORγt-LBD) (Homo sapiens, UniProt P51449); test: Time-resolved FRET (TR-FRET) RORγt coactivator assay; type: biochemical; conditions: GST-RORγ-LBD, biotinylated RIP140 peptide, 2 hours; read-out: IC50, coactivator displacement
T2 construct: 20 nM recombinantly expressed RORγ-LBD fused to GST
T2 sequence (P51449 269-508 limits assumed): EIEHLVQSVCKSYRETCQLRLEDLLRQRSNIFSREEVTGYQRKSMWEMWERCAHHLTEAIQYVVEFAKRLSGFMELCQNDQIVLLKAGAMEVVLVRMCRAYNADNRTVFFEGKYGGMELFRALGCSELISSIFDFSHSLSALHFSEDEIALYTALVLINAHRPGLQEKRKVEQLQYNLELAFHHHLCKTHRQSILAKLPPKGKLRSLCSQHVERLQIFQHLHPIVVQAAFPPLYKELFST
Description: Time-resolved FRET (TR-FRET) RORγt coactivator assay was used to identify RORγ modulator compounds with ligand-dependent coactivator displacement. The assay uses a d2-labeled anti-GST antibody, synthetic N-terminally biotinylated peptide which is derived from nuclear receptor coactivator protein RIP140, and a RORγt ligand-binding domain (RORγt-LBD) that is tagged with glutathione-S-transferase (GST). The influence of compounds on the RORγ-peptide interaction relies on the binding dependent energy transfer from a donor to an acceptor fluorophor attached to the binding partner of interest. […] For reduction of background from compound fluorescence, TR-FRET method makes use of generic fluorophore labels and time resolved detection.
The assays were done in a final volume of 20 μl in a 384 well plate in a CHAPS buffer (2 mM CHAPS; 1 mM DTT, 2 mM EDTA; 0.1% BSA), containing 20 nM recombinantly expressed RORγ-LBD fused to GST, 30 nM N-terminally biotinylated peptide, 1 nM streptavidin-terbium conjugate and 20 nM d2 labeled-anti-GST. Test compounds were diluted using 10 mM stock solution. The range of the final compound concentrations used in this test was from 0.3 nM to 30 μM (logarithmic scale). DMSO content of the samples was kept at 1%. The assay was equilibrated for 2 hours in the dark at room temperature in 384 well plates (Falcon). The signal was detected by an Ultra384 reader (TECAN). […] Compounds that promote coactivator displacement induce a concentration-dependent decrease in time-resolved fluorescent signal. Data were collected and analyzed using GraphPad Prism software (GraphPad Software V5.02, San Diego California USA). IC50 in μM and Emax in % were reported for each compound.

[2] = cited from earlier work

Compound	IC50 (human RORγt)	IC50 [1]	reduction in the Psoriasis Area Severity Index (PASI) score relative to placebo ([2]; 350 mg dose group)	placebo-adjusted PASI score reduction ([2]; 700 mg dose group)	plasma IL-17 levels relative to placebo ([2]; patients with moderate to severe psoriasis)
Cc1ccc(C(NC(=O)Cc2ccc(N3CCNCC3)nc2)c2ccc(C)o2)c(N2CCCCC2)c1 (stereo not shown) [Cpd.10, N-{[4-methyl-2-(piperidin-1-yl)phenyl](5-methylfuran-2-yl)methyl}-2-[6-(piperazin-1-yl)pyridin-3-yl]acetamide]	100 to 1000 nM	< 100 nM	–	–	–
Cc1ccc(C(NC(=O)Cc2cnc(N3CCN(S(C)(=O)=O)CC3)nc2)c2ccc(C)o2)c(N2CCCCC2)c1 (stereo not shown) [Cpd.4, 2-[2-(4-methanesulfonylpiperazin-1-yl)pyrimidin-5-yl]-N-{[4-methyl-2-(piperidin-1-yl)phenyl](5-methylfuran-2-yl)methyl}acetamide]	100 to 1000 nM	< 100 nM	–	–	–
CCS(=O)(=O)c1ccc(CNC(=O)c2cnc3c(c2)CN(C[C@H]2CC[C@H](C(F)(F)F)CC2)[C@H]3C(C)C)nc1 [VTP-43742]	–	–	24%	30%	reduced
CC(=O)C1CCN(c2ncc(CC(=O)NC(c3ccc(C)o3)c3ccc(C)cc3C)cn2)CC1 (stereo not shown) [Cpd.6, 2-[2-(4-acetylpiperidin-1-yl)pyrimidin-5-yl]-N-[(2,4-dimethylphenyl)(5-methylfuran-2-yl)methyl]acetamide]	1000 to 10000 nM	100 to 1000 nM	–	–	–
CC(=O)N1CCN(c2ncc(C3(C(=O)NC(c4ccc(C)o4)c4ccc(C)cc4N4CCCCC4)CC3)cn2)CC1 (stereo not shown) [Cpd.11, 1-[2-(4-acetylpiperazin-1-yl)pyrimidin-5-yl]-N-{[4-methyl-2-(piperidin-1-yl)phenyl](5-methylfuran-2-yl)methyl}cyclopropane-1-carboxamide]	< 100 nM	< 100 nM	–	–	–
Cc1ccc(C(NC(=O)Cc2ccc(N3CCN(C(=O)OC(C)(C)C)CC3)nc2)c2ccc(C)o2)c(N2CCCCC2)c1 (stereo not shown) [Cpd.3, tert-butyl 4-{5-[({[4-methyl-2-(piperidin-1-yl)phenyl](5-methylfuran-2-yl)methyl}carbamoyl)methyl]pyridin-2-yl}piperazine-1-carboxylate]	100 to 1000 nM	100 to 1000 nM	–	–	–
Cc1ccc(C(NC(=O)Cc2cnc(N3CCC(S(C)(=O)=O)CC3)nc2)c2ccc(C)o2)c(N2CCCCC2)c1 (stereo not shown) [Cpd.5, 2-[2-(4-methanesulfonylpiperidin-1-yl)pyrimidin-5-yl]-N-{[4-methyl-2-(piperidin-1-yl)phenyl](5-methylfuran-2-yl)methyl}acetamide]	100 to 1000 nM	< 100 nM	–	–	–
CC(=O)N1CCN(c2cncc(CC(=O)NC(c3ccc(C)o3)c3ccc(C)cc3N3CCCCC3)c2)CC1 (stereo not shown) [Cpd.14, 2-[5-(4-acetylpiperazin-1-yl)pyridin-3-yl]-N-{[4-methyl-2-(piperidin-1-yl)phenyl](5-methylfuran-2-yl)methyl}acetamide]	100 to 1000 nM	< 100 nM	–	–	–

More lines, main results first:

IC50 (human RORγt)	IC50 [1]	Compound	reduction in the Psoriasis Area Severity Index (PASI) score relative to placebo ([2]; 350 mg dose group)	placebo-adjusted PASI score reduction ([2]; 700 mg dose group)	plasma IL-17 levels relative to placebo ([2]; patients with moderate to severe psoriasis)
100 to 1000 nM	100 to 1000 nM	Cc1ccc(C(NC(=O)Cc2cccc(N3CCN(C(=O)C(F)(F)F)CC3)n2)c2ccc(C)o2)c(N2CCCCC2)c1 (stereo not shown) [Cpd.16, N-{[4-methyl-2-(piperidin-1-yl)phenyl](5-methylfuran-2-yl)methyl}-2-{6-[4-(trifluoroacetyl)piperazin-1-yl]pyridin-2-yl}acetamide]	–	–	–
< 100 nM	< 100 nM	CC(=O)N1CCN(c2cccc(CC(=O)NC(c3ccc(C)o3)c3ccc(C)cc3N3CCCCC3)n2)CC1 (stereo not shown) [Cpd.12, 2-[6-(4-acetylpiperazin-1-yl)pyridin-2-yl]-N-{[4-methyl-2-(piperidin-1-yl)phenyl](5-methylfuran-2-yl)methyl}acetamide]	–	–	–
100 to 1000 nM	< 100 nM	CC(=O)N1CCN(c2ncc(CC(=O)NC(c3ccc(C)o3)c3ccc(C)cc3N3CCCCC3)cn2)CC1 (stereo not shown) [Cpd.13, 2-[2-(4-acetylpiperazin-1-yl)pyrimidin-5-yl]-N-{[4-methyl-2-(piperidin-1-yl)phenyl](5-methylfuran-2-yl)methyl}acetamide]	–	–	–
1000 to 10000 nM	100 to 1000 nM	COC(=O)C1CCN(c2ncc(CC(=O)NC(c3ccc(C)o3)c3ccc(C)cc3N3CCCCC3)cn2)CC1 (stereo not shown) [Cpd.7, methyl 1-{5-[({[4-methyl-2-(piperidin-1-yl)phenyl](5-methylfuran-2-yl)methyl}carbamoyl)methyl]pyrimidin-2-yl}piperidine-4-carboxylate]	–	–	–
100 to 1000 nM	< 100 nM	Cc1ccc(C(NC(=O)Cc2ccc(N3CCC(S(C)(=O)=O)CC3)nc2)c2ccc(C)o2)c(N2CCCCC2)c1 (stereo not shown) [Cpd.2, 2-[6-(4-methanesulfonylpiperidin-1-yl)pyridin-3-yl]-N-{[4-methyl-2-(piperidin-1-yl)phenyl](5-methylfuran-2-yl)methyl}acetamide]	–	–	–
100 to 1000 nM	100 to 1000 nM	CC(=O)C1CCN(c2ncc(CC(=O)NC(c3ccc(C)o3)c3ccc(C)cc3N3CCCCC3)cn2)CC1 (stereo not shown) [Cpd.8, 2-[2-(4-acetylpiperidin-1-yl)pyrimidin-5-yl]-N-{[4-methyl-2-(piperidin-1-yl)phenyl](5-methylfuran-2-yl)methyl}acetamide]	–	–	–
100 to 1000 nM	< 100 nM	CC(=O)N1CCN(c2nccc(CC(=O)NC(c3ccc(C)o3)c3ccc(C)cc3N3CCCCC3)n2)CC1 (stereo not shown) [Cpd.15, 2-[2-(4-acetylpiperazin-1-yl)pyrimidin-4-yl]-N-{[4-methyl-2-(piperidin-1-yl)phenyl](5-methylfuran-2-yl)methyl}acetamide]	–	–	–
< 100 nM	< 100 nM	Cc1ccc(C(NC(=O)Cc2cnc(N3CCCC(S(C)(=O)=O)C3)nc2)c2ccc(C)o2)c(N2CCCCC2)c1 (stereo not shown) [Cpd.17, 2-[2-(3-methanesulfonylpiperidin-1-yl)pyrimidin-5-yl]-N-{[4-methyl-2-(piperidin-1-yl)phenyl](5-methylfuran-2-yl)methyl}acetamide]	–	–	–
100 to 1000 nM	< 100 nM	Cc1ccc(C(NC(=O)Cc2ccc(N3CCN(S(C)(=O)=O)CC3)nc2)c2ccc(C)o2)c(N2CCCCC2)c1 (stereo not shown) [Cpd.1, 2-[6-(4-methanesulfonylpiperazin-1-yl)pyridin-3-yl]-N-{[4-methyl-2-(piperidin-1-yl)phenyl](5-methylfuran-2-yl)methyl}acetamide]	–	–	–
1000 to 10000 nM	< 100 nM	Cc1ccc(C(NC(=O)Cc2cnc(N3CCC(C(=O)O)CC3)nc2)c2ccc(C)o2)c(N2CCCCC2)c1 (stereo not shown) [Cpd.9, 1-{5-[({[4-methyl-2-(piperidin-1-yl)phenyl](5-methylfuran-2-yl)methyl}carbamoyl)methyl]pyrimidin-2-yl}piperidine-4-carboxylic acid]	–	–	–
